Results from publication PMC8494060 (Science translational medicine, 2020).

Molecular target: T1, OGA (Rattus norvegicus, UniProt Q8VIJ5)
T1 sequence (Q8VIJ5 1-916): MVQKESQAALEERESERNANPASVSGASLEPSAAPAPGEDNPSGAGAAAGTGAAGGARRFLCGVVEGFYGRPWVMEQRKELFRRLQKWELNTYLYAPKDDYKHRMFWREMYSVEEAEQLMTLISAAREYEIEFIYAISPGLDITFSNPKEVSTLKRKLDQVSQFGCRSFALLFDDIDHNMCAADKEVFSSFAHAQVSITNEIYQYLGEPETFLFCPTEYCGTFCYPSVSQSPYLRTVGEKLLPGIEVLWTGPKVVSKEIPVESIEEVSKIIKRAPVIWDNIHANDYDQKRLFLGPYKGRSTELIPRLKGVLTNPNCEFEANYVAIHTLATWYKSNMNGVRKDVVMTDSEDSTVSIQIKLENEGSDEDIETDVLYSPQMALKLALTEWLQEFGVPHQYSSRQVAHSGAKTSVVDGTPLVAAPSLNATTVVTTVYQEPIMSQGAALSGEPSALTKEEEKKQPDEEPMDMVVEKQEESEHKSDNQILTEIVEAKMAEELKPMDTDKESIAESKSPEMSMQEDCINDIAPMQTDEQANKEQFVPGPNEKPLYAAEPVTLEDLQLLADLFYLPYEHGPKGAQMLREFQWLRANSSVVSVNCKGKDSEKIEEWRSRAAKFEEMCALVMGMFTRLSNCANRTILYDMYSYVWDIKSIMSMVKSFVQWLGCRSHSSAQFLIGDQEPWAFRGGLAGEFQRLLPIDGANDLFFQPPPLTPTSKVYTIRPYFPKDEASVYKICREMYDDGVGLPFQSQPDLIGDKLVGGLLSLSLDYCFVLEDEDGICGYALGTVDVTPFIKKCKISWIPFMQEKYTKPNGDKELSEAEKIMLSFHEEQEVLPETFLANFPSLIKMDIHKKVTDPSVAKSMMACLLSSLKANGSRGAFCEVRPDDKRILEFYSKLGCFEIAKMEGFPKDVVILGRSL
Assay: Rat OGA occupancy of thiamet G
Type: in vivo
Details: 2 h before tracer

LSN3316612 tracer uptake blocked (thiamet G 30 mg/kg p.o.): 80%
LSN3316612 tracer uptake blocked (thiamet G 100 mg/kg p.o.): 94%
SMILES: CCN=C1N[C@@H]2[C@@H](O)[C@H](O)[C@@H](CO)O[C@@H]2S1 [thiamet G]
